In general, EC50 refers to the concentration that produces a half-maximal response.

We go through seven molecules from US20250090875A9, “IMMUNOSTIMULATORY COMPOUNDS AND CONJUGATES” (Seagen Inc., priority 2021, published 2025).

In series [1] the test system is MC38 tumors. Briefly: MC38 colon tumor model in C57BL/6 mice. It is filed as in vivo, mouse. The conditions noted are these: ADC, carboxylic acid vs methyl ester payload, FIG. 12. The protocol:
The activity of several conjugated TLR7/8 molecules in both methyl ester and carboxylic acid forms were also assessed in another colon tumor model, MC38. Results of this analysis are summarized in FIG. 12, which the top panel summarizing tumor volume and the bottom panel providing percent survival across 9 treatment groups. […] However, the increase in anti-tumor activity of the carboxylic acid version of the ADC was much more pronounced in this model for the S18a (methyl ester) or S18b (carboxylic acid) TLR7/8 agonist.
To assess if the small molecule and conjugated agonist are specific for the toll like 7 and/or 8 receptors, various small molecules and ADCs were tested on TLR7 receptor knockout animals. As TLR8 is normally nonfunctional in mice, in TLR7−/− mice there is a total loss of ability to respond to compounds that work through these receptors. To assess whether compounds are TLR7/8 specific, MC38 tumors were implanted into either wild type C57B1/6 mice or cognate TLR7−/− mice. When tumors reached ˜50 mm3 mice animals were treated q7dx3 with vehicle (PBS), 1 mg/kg of the free small molecule S18a, the isotype/non-targeted ADC with cmpd 9 or with an immune cell targeted version of the cmpd 9 IDC.

Series [2] has as its system CT26 tumors. It is filed as in vivo. To be noted: targeted ADC, intraperitoneal, every 7 days, 3 doses. From the text:
This example covers in vivo assessments of anti-tumor activity of ADCs with TLR7/8 agonists. An in vivo syngeneic system was used to assess the ability of the ADCs having TLR ⅞ agonists as the payload to induce immune responses and drive an anti-tumor immune response using a subcutaneous, heterotopic mouse colon carcinoma model (a CT26 system). Female Balb/c mice were implanted with 1×10^5 CT26 cells sub-cutaneously in the flank on day 0. When mean tumor size of 100 mm^3 (measured using the formula: Volume (mm^3)=0.5*Length*Width^2 where length is the longer dimension) was reached, the mice were randomized into treatment groups of 6 mice per group. Animals were then treated intraperitoneally with the indicated treatment every 7 days, for 3 doses total. Stock concentrations of the ADCs were diluted to the appropriate concentration and injected into animals in 100 μL volumes. Tumor length and width and mouse weights were measured throughout the study and tumor volume was calculated using the formula above. Animals were followed until tumor volume reached 1000 mm^3, when animals were then euthanized.

In series [3] the test system is primary human PBMCs. Put plainly: Cytokine induction in primary human PBMCs by small molecule TLR7/8 agonists (Luminex). It is filed as cell-based. To be noted: free drug; for IFNα, IL1β, MIP1β, TNFα induction, C7 carboxylic acid vs parent C7 methyl ester: FIG. 3; for MIP1β and TNFα responses: FIG. 4, compared with Resiquimod or methyl ester counterpart. The protocol:
This example covers dose dependent human immune cell activation by small molecule TLR7/8 agonists. Primary human PBMCs were isolated from peripheral whole blood from human donors and were subjected to treatment with increasing concentrations of the agonists diluted in PBS. Cell culture supernatants were harvested 24 h after treatment and analyzed for induction of cytokines via multiplex ELISAs (Luminex).
Several small molecule TLR7/8 agonists were assessed for their ability to activate human immune cells in a dose dependent manner. Primary human PBMCs were isolated from peripheral whole blood from human donors and were subjected to treatment with increasing concentrations of the agonists diluted in PBS. 24 h after treatment cell culture supernatants were harvested and analyzed for induction of cytokines via multiplex ELISAs (Luminex).

Series [4] concerns human immune cells. Put plainly: Cytokine induction in human immune cells by TLR7/8 agonist-antibody conjugates (Luminex). It is filed as cell-based. To be noted: ADC with immune-targeting antibody, FIGS. 6, 7, 8. Here is the method: Cells were stimulated with the various TLR7/8 agonist-antibody conjugates at different concentrations, and resulting supernatants were harvested and analyzed using a multiplex analyte kit (Luminex).
Immune cells were treated with 5 μg/mL of an immune-targeting antibody, TLR agonist compounds, and antibody conjugated with different TLR agonist compounds (to thereby form ADCs with average drug:antibody ratios of about 8). FIG. 6 summarizes MIP1β (left panel) and TNFα (right panel) responses generated by untreated immune cells, a TLR agonist coupled to a non-targeting antibody (‘Non-targeted’), and TLR agonist compounds conjugated with immune-targeted antibodies (‘targeted cmpd’ 1-7). […] Targeted compounds 2, 4, 5, and 7 correspond to C7 carboxymethylated imidazoquinoline compounds coupled to immunostimulatory antibodies by cleavable linkers. Targeted compounds 3 and 6 correspond to C7 carboxylated imidazoquinoline compounds coupled to immunostimulatory antibodies by cleavable linkers. FIG. 7 provides dose-dependent IL12p40 (left panel) and IL1β (right panel) responses generated with non-targeted (i.e., coupled to an isotype antibody) and immune targeting antibody conjugated compounds, with ‘cmpd 9’ corresponding to a C7 carboxylated imidazoquinoline compound and ‘cmpo10’ corresponding to its C7 carboxymethyl analogue. FIG. 8 provides dose-dependent interleukin 6 (IL6, left panel) and TNFα (right panel) responses with ADCs comprising immune cell targeting antibodies coupled to either C7 carboxylated (cmpd 3, 8, 9) or C7 carboxymethylated (cmpd 4, 7, 10) imidazoquinoline compounds.
In order to ascertain whether the difference in activity of the N1 vs. C4 linked conjugates seen in the Renca model was due to variable potency, a dose range experiment was performed. The N1 and C4 linked targeted (ADC) and non-targeted conjugates were administered in a wide dose range (0.001 to 10 μg/mL) to exogenously derived human immune cells. […] Supernatants were harvested and analyzed using a multiplex analyte kit (Luminex).

Series [5] addresses T1, hTLR7 (Homo sapiens, UniProt Q9NYK1).
T1 construct: expressed in transfected cells; host or cells: HEK Blue hTLR7 cells
T1 sequence (Q9NYK1 27-1049): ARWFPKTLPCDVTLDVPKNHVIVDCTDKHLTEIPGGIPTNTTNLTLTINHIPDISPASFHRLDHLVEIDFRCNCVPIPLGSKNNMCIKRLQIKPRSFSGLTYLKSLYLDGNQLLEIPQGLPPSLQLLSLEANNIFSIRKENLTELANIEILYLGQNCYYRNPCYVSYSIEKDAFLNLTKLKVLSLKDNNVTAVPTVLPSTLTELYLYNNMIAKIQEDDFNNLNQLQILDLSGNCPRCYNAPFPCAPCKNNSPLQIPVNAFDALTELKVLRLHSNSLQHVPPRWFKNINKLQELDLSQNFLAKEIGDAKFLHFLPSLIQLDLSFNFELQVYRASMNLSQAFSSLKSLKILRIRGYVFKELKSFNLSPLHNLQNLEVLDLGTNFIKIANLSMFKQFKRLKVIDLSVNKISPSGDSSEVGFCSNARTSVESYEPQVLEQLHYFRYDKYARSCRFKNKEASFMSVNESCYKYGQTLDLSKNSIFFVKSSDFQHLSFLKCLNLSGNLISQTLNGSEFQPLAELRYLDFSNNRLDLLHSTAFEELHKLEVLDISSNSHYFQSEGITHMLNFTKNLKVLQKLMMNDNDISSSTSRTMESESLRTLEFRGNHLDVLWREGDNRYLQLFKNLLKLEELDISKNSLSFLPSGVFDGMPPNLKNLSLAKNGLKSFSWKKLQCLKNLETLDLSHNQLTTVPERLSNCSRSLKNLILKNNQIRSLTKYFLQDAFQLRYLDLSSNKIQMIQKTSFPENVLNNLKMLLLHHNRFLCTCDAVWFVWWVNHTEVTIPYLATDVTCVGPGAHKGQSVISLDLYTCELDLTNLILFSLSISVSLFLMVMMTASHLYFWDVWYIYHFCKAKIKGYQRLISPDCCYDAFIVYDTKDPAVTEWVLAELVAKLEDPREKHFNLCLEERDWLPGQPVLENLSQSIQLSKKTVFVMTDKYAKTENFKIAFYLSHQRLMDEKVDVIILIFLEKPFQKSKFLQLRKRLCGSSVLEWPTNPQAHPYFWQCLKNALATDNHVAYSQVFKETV
Put plainly: HEK Blue hTLR7 cell assay of free TLR7/8 agonists. Format: cell-based. The conditions noted are these: HEK Blue hTLR7 cells, free agonist. The protocol:
This example covers toll-like receptor 7 (TLR7) and toll-like receptor 8 (TLR8) selectivity of imidazoquinoline agonists. Assessment of TLR7 and TLR8 selectivity for the free TLR7/8 agonists was performed using HEK Blue hTLR7 and hTLR8 cells over a large dose range of compounds. […] Activities were determined based on calculated EC50 (in μM) in each cell line, and are summarized in TABLE 4 below, with columns providing targets and rows providing compounds.

Series [6] can be described thus: SEC analysis of ADC aggregation (high molecular weight species) in plasma. It is filed as physicochemical. To be noted: ADC incubated with human or mouse plasma, FIG. 9. The protocol: Method I: Size-exclusion chromatography (SEC) was performed with a Waters ACQUITY UPLC system and an Acquity UPLC Protein BEH SEC Column, (200 Å, 1.7 μm, 4.6×150 mm, PN: 186005225). The mobile phase used was 7.5% isopropanol in 92.5% aqueous (25 mM sodium phosphate, 350 mM NaCl, pH 6.8), v/v. Elution was performed isocratically at a flow rate of 0.4 mL/min at ambient temperature.
To determine if any of these differences in activity potentially resulted from increases in aggregation as a subsequent result of changes in charge, SEC analysis was performed. ADCs containing either S18a (methyl ester) or S18b (carboxylic acid) were incubated with both human or mouse plasma and assessed for the formation of high molecular weight species (HMW) over time.

Series [7] relates to Renca tumors. Put plainly: Renca kidney carcinoma model in Balb/c mice. Format: in vivo, mouse. The conditions noted are these: ADC, q7dx3 from ~100 mm^3, FIG. 14. The protocol: The difference in anti-tumor activity of the S18a and S18b conjugates was also assessed in the Renca kidney model. In this model, mice bearing Renca tumors were treated q7dx3 when tumors reached ˜100 mm^3 as indicated, and followed for mean group tumor growth (FIG. 14, top) and survival (FIG. 14, bottom) over time.
This example covers cancer treatment with EphA2 targeted TLR agonists. […] Balb/c mice were implanted with Renca tumor cells and when cells reached 100 mm^3 they were treated Q7dx3 treatments with 2.4 mg/kg of the indicated IDC, either non targeting isotype or an EphA2 targeting mAb.

Each structure is given as a SMILES string.

As for `CCCCc1nc2c(N)nc3cc(C(=O)O)ccc3c2n1Cc1ccc(CNC(=O)OCc2ccc(O[C@H]3O[C@H](CO)[C@@H](O)[C@H](O)[C@@H]3O)c(NC(=O)CCNC(=O)[C@H](CCCCNC(=O)CCOCCOCCOCCOCCOCCOCCOCCOCCOCCOCCOCCOC)NC(=O)CCN3C(=O)C=CC3=O)c2)cc1` [Compound 3, 4-amino-2-butyl-1-(4-(((((3-((S)-44-(3-(2,5-dioxo-2,5-dihydro-1H-pyrrol-1-yl)propanamido)-38,45-dioxo-2,5,8,11,14,17,20,23,26,29,32,35-dodecaoxa-39,46-diazanonatetracontan-49-amido)-4-(((2R,3S,4S,5S,6R)-3,4,5-trihydroxy-6-(hydroxymethyl)tetrahydro-2H-pyran-2-yl)oxy)benzyl)oxy)carbonyl)amino)methyl)benzyl)-1H-imidazo[4,5-c]quinoline-7-carboxylic acid], the “tumor growth delay and survival” value in series [1] is on record as “slight increased survival advantage”; in series [2], “profound tumor growth delay”.
Take `CCCCc1nc2c(N)nc3cc(C(=O)O)ccc3c2n1Cc1ccc(CN)cc1` [S8b, 4-amino-1-(4-(aminomethyl)benzyl)-2-butyl-1H-imidazo[4,5-c]quinoline-7-carboxylic acid]: in series [3], the “IFNα, IL1β, MIP1β, TNFα induction, C7 carboxylic acid vs parent C7 methyl ester” value is “markedly lower potency and activity than its corresponding parent methyl ester compound”; the “MIP1β and TNFα responses” value was “lower activities than their methyl ester counterparts”. Moreover, the “potency at activating immune cells vs methyl ester analogues” value (“potency … vs methyl ester analogues” for short) in series [4] was “just as, if not more potent at activating immune cells than their methyl ester analogues”.
Take `CCCCc1nc2c(N)nc3cc(C(=O)OC)ccc3c2n1CCCCCN(C)C` [S77a]: the EC50 in series [5] stood at 2.82 µM.
In the case of `CCCCc1nc2c(N)nc3cc(C(=O)O)ccc3c2n1Cc1ccc(CN(C)C)cc1` [S18b], the “aggregation (formation of high molecular weight species over time)” value in series [6] is reported as “no significant difference in the amounts of aggregation”. For the same molecule, the “tumor growth delay and survival” value in series [1] was “distinct tumor growth delay and overall survival benefit”. In addition, the “tumor growth and survival” value in series [7] is “very good tumor growth delay and superior overall survival advantage”. In addition, in series [4], the “potency … vs methyl ester analogues” value was “just as, if not more potent at activating immune cells than their methyl ester analogues”.
`COCCc1nc2c(N)nc3cc(C(=O)OC)ccc3c2n1Cc1ccc(CN)cc1` [S78a] showed an EC50 in series [5] of 3.78 µM.
Same read-out and setting: the figure for `CCCCc1nc2c(N)nc3cc(C(=O)OC)ccc3c2n1CCc1ccc(CN)cc1` [S76a] is 3.44 µM.
Take `CCCCc1nc2c(N)nc3cc(C(=O)O)ccc3c2n1CCN` [S11b]: in series [3], the “IFNα, IL1β, MIP1β, TNFα induction, C7 carboxylic acid vs parent C7 methyl ester” value is “markedly lower potency and activity than its corresponding parent methyl ester compound”; the “MIP1β and TNFα responses” value is on record as “lower activities than their methyl ester counterparts”. Also, the “potency … vs methyl ester analogues” value in series [4] is “just as, if not more potent at activating immune cells than their methyl ester analogues”.
